# Literature values, collected in patent US20180016637A1, “METHOD OF EVALUATING THE RESPONSE OF ATAXIA TELANGIECTASIA PATIENTS TO GLUCOCORTICOIDS TREATMENT” (EryDel S.p.A., priority 2015, published 2018).
# System: lymphoblastoid cell lines from lymphocytes of A-T patients
smiles,measurement,value
C[C@@H]1C[C@H]2[C@@H]3CCC4=CC(=O)C=C[C@]4(C)[C@@]3(F)[C@@H](O)C[C@]2(C)[C@@]1(O)C(=O)COP(=O)(O)O [Dexamethasone sodium phosphate],transcript induced in vitro,a transcript of about 1582 bp denominated ATMdexa1
